Results on 2 molecules are retold here after patent publication US11897859B1, “Coumarin compounds as antibacterial agents” (KING FAISAL UNIVERSITY, priority 2023, dated 2024).

Converted amounts (≈) assume the structure as drawn. Read-outs that look alike come from different tables or passages of the source.

The subject of assay [1] is Klebsiella pneumonia MTCC 618. The assay is described as follows: In vitro antibacterial activity (CLSI M07-A10 dilution), MIC. It is filed as cell-based. As to conditions: Klebsiella pneumoniae, MTCC618.
Assay [2] concerns Escherichia coli MTCC 443. Described as above. The class given is cell-based. As to conditions: MTCC443.
Assay [3] concerns Staphylococcus epidermidis. Described as above. The class given is cell-based.
Assay [4] concerns Enterococcus faecium ATCC 35667. The description is as above. It is filed as cell-based. As to conditions: ATCC35667.
For assay [5], the system named is Mycobacterium tuberculosis H37Rv strain. The experiment in a line: Anti-tubercular alamar blue microplate MIC assay. It is filed as cell-based. The settings on record: 168 h, M. tuberculosis H37Rv, 7 days at 37° C., read-out: anti-mycobacterial activity (MIC).
The subject of assay [6] is Bacillus subtilis MTCC 441. The experiment in a line: In vitro antibacterial activity (CLSI M07-A10 dilution), MIC. The settings on record: MTCC441. The class given is cell-based.
Assay [7] relates to Staphylococcus aureus ATCC 29213. The assay is described as above. The settings on record: ATCC29213. The class given is cell-based.
Assay [8] deals with Pseudomonas aeruginosa MTCC 741. The assay is described as above. The settings on record: MTCC741. It is filed as cell-based.
In assay [9] the test system is Enterococcus faecium ATCC 51559 (VRE resistant). The assay is described as above. It is filed as cell-based.
The next assay has as its target T1, DNA gyrase from E. coli (Escherichia coli, UniProt P0AES4+P0AES6).
T1 construct: purchased Inspiralis
The experiment in a line: Inhibitory activity on E. coli DNA gyrase (Inspiralis supercoiling assay). The class given is biochemical. As for the experimental part: Inhibitory potencies were investigated utilizing the Inspiralis assay on streptavidin-coated 96-well microtiter plates. First, the plates were rehydrated with buffer (20 mM Tris-HCl with pH 7.6, 0.01% w/v BSA, 0.05% v/v Tween 20, 137 mM NaCl) and the biotinylated oligonucleotide was then immobilized. After washing off the unbound oligonucleotide, the enzyme test was performed. […] Reaction solutions were incubated at 37° C. for 30 min. After that, the TF buffer (50 mM NaOAc with pH 5.0, 50 mM NaCl and 50 mM MgCl2) was added to terminate the enzymatic reaction. After additional incubation for 30 min at rt, during which biotinoligonucleotide-plasmid triplex was formed, the unbound plasmid was washed off using TF buffer and SybrGOLD in T10 buffer (10 mM Tris HCl with pH 8.0 and 1 mM EDTA) was added. The fluorescence was measured with a microplate reader (BioTek Synergy H4, excitation: 485 nm, emission: 535 nm). […] GraphPad Prism software was used to calculate the IC50 values. The result is given as the average value of three independent measurements.

Assay [10] deals with Staphylococcus aureus ATCC BAA-1556 (MERSA resistant). The assay is described as follows: In vitro antibacterial activity (CLSI M07-A10 dilution), MIC. It is filed as cell-based. The settings on record: ATCCBAA1556.

T1 sequence (P0AES4 whole entry, one chain of several): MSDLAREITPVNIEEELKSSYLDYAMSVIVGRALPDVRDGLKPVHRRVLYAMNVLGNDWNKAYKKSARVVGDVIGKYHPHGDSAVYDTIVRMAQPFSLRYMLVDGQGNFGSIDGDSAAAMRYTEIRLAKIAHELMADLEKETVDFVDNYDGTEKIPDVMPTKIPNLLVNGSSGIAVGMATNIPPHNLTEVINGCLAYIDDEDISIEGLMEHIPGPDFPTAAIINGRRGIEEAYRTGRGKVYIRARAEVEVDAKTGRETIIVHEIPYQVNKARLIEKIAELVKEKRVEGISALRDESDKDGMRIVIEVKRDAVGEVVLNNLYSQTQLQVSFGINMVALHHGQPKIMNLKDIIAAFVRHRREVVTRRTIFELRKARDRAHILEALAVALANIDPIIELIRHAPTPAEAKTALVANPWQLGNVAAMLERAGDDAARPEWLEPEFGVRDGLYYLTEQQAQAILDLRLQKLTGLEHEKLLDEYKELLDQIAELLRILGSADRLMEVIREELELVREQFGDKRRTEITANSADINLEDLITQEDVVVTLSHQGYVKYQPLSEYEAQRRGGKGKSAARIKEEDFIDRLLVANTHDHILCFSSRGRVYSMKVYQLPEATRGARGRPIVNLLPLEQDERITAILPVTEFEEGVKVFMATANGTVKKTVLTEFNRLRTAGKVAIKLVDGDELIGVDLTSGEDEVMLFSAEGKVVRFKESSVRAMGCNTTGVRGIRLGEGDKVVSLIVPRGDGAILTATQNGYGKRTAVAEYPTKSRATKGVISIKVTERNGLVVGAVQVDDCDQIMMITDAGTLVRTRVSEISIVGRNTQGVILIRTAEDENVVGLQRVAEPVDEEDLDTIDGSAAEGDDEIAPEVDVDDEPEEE

The molecule `CN[C@H](CC(C)C)C(=O)N[C@H]1C(=O)N[C@@H](CC(N)=O)C(=O)N[C@H]2C(=O)N[C@H]3C(=O)N[C@H](C(=O)N[C@H](C(=O)O)c4cc(O)cc(O)c4-c4cc3ccc4O)[C@H](O)c3ccc(c(Cl)c3)Oc3cc2cc(c3O[C@@H]2O[C@H](CO)[C@@H](O)[C@H](O)[C@H]2O[C@H]2C[C@](C)(N)[C@H](O)[C@H](C)O2)Oc2ccc(cc2Cl)[C@H]1O` [Vancomycin, reference compound] displayed an MIC in assay [1] of more than 128 µg/mL.

On to `CCC(=O)Nc1ccc2cc(-c3cc(C(=O)O)ccc3CN(C)C3CCCCC3)c(=O)oc2c1` [Compound 12, 4-((cyclohexyl(methyl)amino)methyl)-3-(2-oxo-7-propionamido-2H-chromen-3-yl)benzoic acid], for which the minimum inhibitory concentration (MIC) in [2] was found to be 4 µg/mL (≈ 8.65 µM); in assay [3], 1 µg/mL (≈ 2.16 µM); in assay [4] it was 0.75 µg/mL (≈ 1.62 µM); in assay [5], 8 µg/mL (≈ 17.3 µM); in assay [6], 0.75 µg/mL (≈ 1.62 µM); in assay [7], 2 µg/mL (≈ 4.32 µM). The minimal inhibitory concentration (MIC) in [8] worked out at 1 µg/mL (≈ 2.16 µM); in assay [9], 1 µg/mL (≈ 2.16 µM); in [1] (Klebsiella pneumonia MTCC 618, read-out: MIC) it was 1 µg/mL (≈ 2.16 µM); in assay [10], 4 µg/mL (≈ 8.65 µM). In addition, the IC50 on DNA gyrase from E. coli was 78 nM.
